In general, IC50 refers to the midpoint of a concentration-inhibition curve.

The experiment addresses T1, AAK1 (Homo sapiens, UniProt Q2M2I8).
T1 construct: HA; expressed in transfected cells; host or cells: HEK293F
In words: HEK281 cell-based assay (phospho-mu2 Western blot in transfected HEK293F cells). As to conditions: 3 hours incubation, read-out: CBA IC50. The procedure, abridged:
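HEK293F cells co-transfected with full-length human AAK1/HA and Flag/AP2M1 were treated next day with 5 compound concentrations (3-fold dilutions) in DMEM+0.5% FBS for 3 hours at 37° C. Lysates were Western blotted for phospho-mu2, with total mu2 detected by anti-Flag.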
For orientation: In western blotting, separated proteins are transferred to a membrane and probed.

T1 sequence (Q2M2I8 1-863 isoform Q2M2I8-2): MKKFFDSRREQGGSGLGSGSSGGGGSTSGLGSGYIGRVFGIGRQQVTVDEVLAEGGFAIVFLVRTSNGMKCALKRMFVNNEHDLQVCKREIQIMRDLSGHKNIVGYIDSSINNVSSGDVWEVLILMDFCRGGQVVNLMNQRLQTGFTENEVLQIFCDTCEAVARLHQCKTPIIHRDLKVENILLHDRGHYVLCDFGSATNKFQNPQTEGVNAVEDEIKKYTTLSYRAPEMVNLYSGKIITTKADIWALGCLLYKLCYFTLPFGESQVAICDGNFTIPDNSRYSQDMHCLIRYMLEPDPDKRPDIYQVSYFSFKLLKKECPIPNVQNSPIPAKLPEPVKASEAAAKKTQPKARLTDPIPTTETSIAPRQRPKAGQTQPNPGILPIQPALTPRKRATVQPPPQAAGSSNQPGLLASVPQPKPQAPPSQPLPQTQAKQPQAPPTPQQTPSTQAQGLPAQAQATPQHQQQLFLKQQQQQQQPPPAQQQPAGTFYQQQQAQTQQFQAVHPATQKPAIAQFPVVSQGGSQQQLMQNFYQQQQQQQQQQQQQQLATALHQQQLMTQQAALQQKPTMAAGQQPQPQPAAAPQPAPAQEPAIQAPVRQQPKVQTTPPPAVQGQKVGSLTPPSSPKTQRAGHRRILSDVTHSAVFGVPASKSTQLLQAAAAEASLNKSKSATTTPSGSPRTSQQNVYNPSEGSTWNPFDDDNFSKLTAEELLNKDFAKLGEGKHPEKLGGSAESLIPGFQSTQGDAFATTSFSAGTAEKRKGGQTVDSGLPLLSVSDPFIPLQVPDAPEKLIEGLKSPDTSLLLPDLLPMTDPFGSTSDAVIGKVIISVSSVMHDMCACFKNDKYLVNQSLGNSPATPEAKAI

Consider `CCOC(=O)N(CCNc1ccc2ncc(-c3ccc(C(N)=O)cc3)n2n1)C(C)C` [ethyl (2-((3-(4-carbamoylphenyl)imidazo[1,2-b]pyridazin-6-yl)amino)ethyl)(isopropyl)carbamate], for which the IC50 was no more than 100 nM.

For `CCOC(=O)N(C)CCNc1ccc2ncc(-c3ccc(C(N)=O)cc3)n2n1` [ethyl (2-((3-(4-carbamoylphenyl)imidazo[1,2-b]pyridazin-6-yl)amino)ethyl)(methyl)carbamate], the IC50 is no more than 100 nM.

With `CCOC(=O)N(C)CCCNc1ccc2ncc(-c3ccc(C(C)=O)s3)n2n1` [ethyl (3-((3-(5-acetylthiophen-2-yl)imidazo[1,2-b]pyridazin-6-yl)amino)propyl)(methyl)carbamate], the half-inhibitory concentration (IC50) is no more than 1000 nM. Take `CCOC(=O)N(CCNc1ccc2ncc(-c3ccncc3OC)n2n1)C(C)C` [ethyl isopropyl(2-((3-(3-methoxypyridin-4-yl)imidazo[1,2-b]pyridazin-6-yl)amino)ethyl)carbamate]: the IC50 is no more than 10 nM.

Consider `CCOC(=O)N(C)CCNc1ccc2ncc(-c3ccc(C(=O)NC)cc3)n2n1` [ethyl methyl(2-((3-(4-(methylcarbamoyl)phenyl)imidazo[1,2-b]pyridazin-6-yl)amino)ethyl)carbamate], for which the half-maximal inhibitory concentration (IC50) is no more than 100 nM. As to `CCOC(=O)N(C)CCNc1ccc2ncc(-c3ccc(C(=O)NC)s3)n2n1` [ethyl methyl(2-((3-(5-(methylcarbamoyl)thiophen-2-yl)imidazo[1,2-b]pyridazin-6-yl)amino)ethyl)carbamate], the IC50 was no more than 100 nM. The figure for `CC(C)COC(=O)N(C)CCNc1ccc2ncc(-c3ccc(C(N)=O)cc3)n2n1` [isobutyl (2-((3-(4-carbamoylphenyl)imidazo[1,2-b]pyridazin-6-yl)amino)ethyl)(methyl)carbamate] is no more than 100 nM; for `COc1cnccc1-c1cnc2ccc(NCCN(C(=O)OCC(C)C)C(C)C)nn12` [isobutyl isopropyl(2-((3-(3-methoxypyridin-4-yl)imidazo[1,2-b]pyridazin-6-yl)amino)ethyl)carbamate] it is no more than 100 nM; for `CNC(=O)c1ccc(-c2cnc3ccc(NCCN(C)C(=O)OCC(C)C)nn23)cc1` [isobutyl methyl(2-((3-(4-(methylcarbamoyl)phenyl)imidazo[1,2-b]pyridazin-6-yl)amino)ethyl)carbamate] it is no more than 100 nM.

As to `CC(C)OC(=O)N1CCN(c2ccc3ncc(-c4cccc5c4OCC5)n3n2)CC1` [isopropyl 4-(3-(2,3-dihydrobenzofuran-7-yl)imidazo[1,2-b]pyridazin-6-yl)piperazine-1-carboxylate], the IC50 was no more than 100 nM. For the molecule `COc1cnccc1-c1cnc2ccc(N3CCN(C(=O)OC(C)C)CC3)nn12` [isopropyl 4-(3-(3-methoxypyridin-4-yl)imidazo[1,2-b]pyridazin-6-yl)piperazine-1-carboxylate], the IC50 was no more than 10 nM. The figure for `CC(C)OC(=O)N1CCN(c2ccc3ncc(-c4cccc5c4OCO5)n3n2)CC1` [isopropyl 4-(3-(benzo[d][1,3]dioxo1-4-yl)imidazo[1,2-b]pyridazin-6-yl)piperazine-1-carboxylate] is no more than 100 nM. As for `CNC(=O)c1cnc2ccc(N3CCN(C(=O)OC(C)C)CC3)nn12` [isopropyl 4-(3-(methylcarbamoyl)imidazo[1,2-b]pyridazin-6-yl)piperazine-1-carboxylate], the IC50 is no more than 100 nM. The value for `CC(C)OC(=O)N1CCN(c2ccc3ncc(-c4ccncc4)n3n2)CC1` [isopropyl 4-(3-(pyridin-4-yl)imidazo[1,2-b]pyridazin-6-yl)piperazine-1-carboxylate] was no more than 100 nM; that for `CC(C)OC(=O)N(C)CCNc1ccc2ncc(-c3cn[nH]c3)n2n1` [isopropyl (2-((3-(1H-pyrazol-4-yl)imidazo[1,2-b]pyridazin-6-yl)amino)ethyl)(methyl)carbamate] was no more than 100 nM; that for `Cc1nc(C)c(-c2cnc3ccc(NCCN(C)C(=O)OC(C)C)nn23)s1` [isopropyl (2-((3-(2,4-dimethylthiazol-5-yl)imidazo[1,2-b]pyridazin-6-yl)amino)ethyl)(methyl)carbamate] was no more than 100 nM. The value for `CC(C)OC(=O)N(C)CCNc1ccc2ncc(-c3ccnc(N)c3)n2n1` [isopropyl (2-((3-(2-aminopyridin-4-yl)imidazo[1,2-b]pyridazin-6-yl)amino)ethyl)(methyl)carbamate] was no more than 100 nM; that for `CC(C)OC(=O)N(C)CCNc1ccc2ncc(-c3ccccc3F)n2n1` [isopropyl (2-((3-(2-fluorophenyl)imidazo[1,2-b]pyridazin-6-yl)amino)ethyl)(methyl)carbamate] was no more than 100 nM; that for `COc1ccccc1-c1cnc2ccc(NCCN(C)C(=O)OC(C)C)nn12` [isopropyl (2-((3-(2-methoxyphenyl)imidazo[1,2-b]pyridazin-6-yl)amino)ethyl)(methyl)carbamate] was no more than 100 nM. The value for `COc1cnccc1-c1cnc2ccc(NCCN(C)C(=O)OC(C)C)nn12` [isopropyl (2-((3-(3-methoxypyridin-4-yl)imidazo[1,2-b]pyridazin-6-yl)amino)ethyl)(methyl)carbamate] was no more than 100 nM; that for `COc1cnccc1-c1cnc2ccc(NCCNC(=O)OC(C)C)nn12` [isopropyl (2-((3-(3-methoxypyridin-4-yl)imidazo[1,2-b]pyridazin-6-yl)amino)ethyl)carbamate] was no more than 100 nM. Take `COc1cc(F)c(F)cc1-c1cnc2ccc(NCCN(C(=O)OC(C)C)C(C)C)nn12` [isopropyl (2-((3-(4,5-difluoro-2-methoxyphenyl)imidazo[1,2-b]pyridazin-6-yl)amino)ethyl)(isopropyl)carbamate]: the IC50 was no more than 100 nM. The figure for `CC(C)OC(=O)N(CCNc1ccc2ncc(-c3ccc(C(N)=O)cc3)n2n1)C(C)C` [isopropyl (2-((3-(4-carbamoylphenyl)imidazo[1,2-b]pyridazin-6-yl)amino)ethyl)(isopropyl)carbamate] is no more than 100 nM; for `CC(C)OC(=O)N(C)CCNc1ccc2ncc(-c3ccc(C(N)=O)cc3)n2n1` [isopropyl (2-((3-(4-carbamoylphenyl)imidazo[1,2-b]pyridazin-6-yl)amino)ethyl)(methyl)carbamate] it is no more than 10 nM. In the case of `COc1cc(F)ccc1-c1cnc2ccc(NCCN(C)C(=O)OC(C)C)nn12` [isopropyl (2-((3-(4-fluoro-2-methoxyphenyl)imidazo[1,2-b]pyridazin-6-yl)amino)ethyl)(methyl)carbamate], the IC50 was no more than 100 nM. The figure for `COc1ccc(F)cc1-c1cnc2ccc(NCCN(C(=O)OC(C)C)C(C)C)nn12` [isopropyl (2-((3-(5-fluoro-2-methoxyphenyl)imidazo[1,2-b]pyridazin-6-yl)amino)ethyl)(isopropyl)carbamate] is no more than 100 nM.

Consider `COc1ccc(F)cc1-c1cnc2ccc(NCCN(C)C(=O)OC(C)C)nn12` [isopropyl (2-((3-(5-fluoro-2-methoxyphenyl)imidazo[1,2-b]pyridazin-6-yl)amino)ethyl)(methyl)carbamate], for which the IC50 is no more than 10 nM. The figure for `CC(C)OC(=O)N(C)CCCNc1ccc2ncc(-c3ccc(CN)cc3)n2n1` [isopropyl (3-((3-(4-(aminomethyl)phenyl)imidazo[1,2-b]pyridazin-6-yl)amino)propyl)(methyl)carbamate] is no more than 100 nM; for `CC(=O)c1ccc(-c2cnc3ccc(NCCCN(C)C(=O)OC(C)C)nn23)s1` [isopropyl (3-((3-(5-acetylthiophen-2-yl)imidazo[1,2-b]pyridazin-6-yl)amino)propyl)(methyl)carbamate] it is no more than 100 nM; for `CCN(CCNc1ccc2ncc(-c3ccncc3OC)n2n1)C(=O)OC(C)C` [isopropyl ethyl(2-((3-(3-methoxypyridin-4-yl)imidazo[1,2-b]pyridazin-6-yl)amino)ethyl)carbamate] it is no more than 100 nM. The value for `CCN(CCNc1ccc2ncc(-c3ccc(C(=O)NC)cc3)n2n1)C(=O)OC(C)C` [isopropyl ethyl(2-((3-(4-(methylcarbamoyl)phenyl)imidazo[1,2-b]pyridazin-6-yl)amino)ethyl)carbamate] was no more than 100 nM; that for `COc1ccccc1-c1cnc2ccc(NCCN(C(=O)OC(C)C)C(C)C)nn12` [isopropyl isopropyl(2-((3-(2-methoxyphenyl)imidazo[1,2-b]pyridazin-6-yl)amino)ethyl)carbamate] was no more than 100 nM.

`COc1cnccc1-c1cnc2ccc(NCCN(C(=O)OC(C)C)C(C)C)nn12` [isopropyl isopropyl(2-((3-(3-methoxypyridin-4-yl)imidazo[1,2-b]pyridazin-6-yl)amino)ethyl)carbamate]: the IC50 was no more than 10 nM. For `CNC(=O)c1ccc(-c2cnc3ccc(NCCN(C(=O)OC(C)C)C(C)C)nn23)cc1` [isopropyl isopropyl(2-((3-(4-(methylcarbamoyl)phenyl)imidazo[1,2-b]pyridazin-6-yl)amino)ethyl)carbamate], the IC50 is no more than 100 nM. Take `CC(C)OC(=O)N(CCNc1ccc2ncc(-c3ccncc3)n2n1)C(C)C` [isopropyl isopropyl(2-((3-(pyridin-4-yl)imidazo[1,2-b]pyridazin-6-yl)amino)ethyl)carbamate]: the IC50 is no more than 100 nM. The value for `CC(C)OC(=O)N(CCNc1ccc2ncc(-c3ccccc3)n2n1)C(C)C` [isopropyl isopropyl(2-((3-phenylimidazo[1,2-b]pyridazin-6-yl)amino)ethyl)carbamate] was no more than 100 nM; that for `CNC(=O)c1ccc(-c2cnc3ccc(NCCN(C)C(=O)OC(C)C)nn23)cc1` [isopropyl methyl(2-((3-(4-(methylcarbamoyl)phenyl)imidazo[1,2-b]pyridazin-6-yl)amino)ethyl)carbamate] was no more than 100 nM; that for `CC(C)OC(=O)N(C)CCNc1ccc2ncc(-c3ccc(C4CCCN4)cc3)n2n1` (stereo not drawn) [isopropyl methyl(2-((3-(4-(pyrrolidin-2-yl)phenyl)imidazo[1,2-b]pyridazin-6-yl)amino)ethyl)carbamate] was no more than 10 nM. For `CC(C)OC(=O)N(C)CCNc1ccc2ncc(-c3cscn3)n2n1` [isopropyl methyl(2-((3-(thiazol-4-yl)imidazo[1,2-b]pyridazin-6-yl)amino)ethyl)carbamate], the half-inhibitory concentration (IC50) was no more than 100 nM.

Source of the values: patent US8969565B2, “Imidazo[1,2-b]pyridazine-based compounds, compositions comprising them, and methods of their use” (Lexicon Pharmaceuticals, Inc., priority 2012, dated 2015).
